Reference: US10981892B2, “Acyl sulfonamides that are Bcl family antagonists for use in clinical management of conditions caused or mediated by senescent cells and for treating cancer” (Unity Biotechnology, Inc., priority 2018, dated 2021)
Entries after “also recorded” stand apart in the source; their conditions may differ.

Experiments:
[1] = background statement; cited from earlier work
[2] = system: cigarette smoke induced COPD model, 3MR or INK-ATTAC mice; experiment: Cigarette smoke (CS) induced COPD model, oxygen saturation; type: in vivo, mouse; conditions: after two months of cigarette smoke exposure, compared with untreated controls
Description: As a model for chronic obstructive pulmonary disease (COPD), mice were exposed to cigarette smoke. The effect of a senolytic agent on the mice exposed to smoke is assessed by senescent cell clearance, lung function, and histopathology. The mice used in this study include the 3MR strain, described in US 2017/0027139 A1 and in Demaria et al., Dev Cell. 2014 Dec. 22; 31(6): 722-733. […] The enzyme in the transgene is placed under control of the p16 promoter, which causes it to be specifically expressed in senescent cells. Treatment of the mice with GCV eliminates senescent cells. Other mice used in this study include the […] strain, described in US 2015/0296755 A1 and in Baker et al., Nature 2011 Nov. 2; 479(7372):232-236. The […] mouse has a transgene encoding switchable caspase 8 under control of the p16 promoter. The caspase 8 can be activated by treating the mice with the switch compound AP20187, whereupon the caspase 8 directly induces apoptosis in senescent cells, eliminating them from the mouse. To conduct the experiment, six-week-old 3MR (n=35) or […]=35) mice were chronically exposed to cigarette smoke generated from a Teague TE-10 system, an automatically-controlled cigarette smoking machine that produces a combination of side-stream and mainstream cigarette smoke in a chamber, which is transported to a collecting and mixing chamber where varying amounts of air is mixed with the smoke mixture. The COPD protocol was adapted from the COPD core facility at Johns Hopkins University (Rangasamy et al., 2004, J. Clin. Invest. 114:1248-1259; Yao et al., 2012, J. Clin. Invest. 122:2032-2045). Mice received a total of 6 hours of cigarette smoke exposure per day, 5 days a week for 6 months. Each lighted cigarette (3R4F research cigarettes containing 10.9 mg of total particulate matter (TPM), 9.4 mg of tar, and 0.726 mg of nicotine, and 11.9 mg carbon monoxide per cigarette [University of Kentucky, Lexington, Ky.]) was puffed for 2 seconds and once every minute for a total of 8 puffs, with the flow rate of 1.05 L/min, to provide a standard puff of 35 cm3. The smoke machine was adjusted to produce a mixture of side stream smoke (89%) and mainstream smoke (11%) by smoldering 2 cigarettes at one time. The smoke chamber atmosphere was monitored for total suspended particulates (80-120 mg/m3) and carbon monoxide (350 ppm). […] An equal number of mice received the corresponding vehicle. […] After two months of cigarette smoke (CS) exposure, lung function was assessed by monitoring oxygen saturation using the MouseSTAT PhysioSuiteTM pulse oximeter (Kent Scientific). […] Mice were monitored for 30 seconds and the average peripheral capillary oxygen saturation (SpO2) measurement over this duration was calculated.

[3] = system: osteoarthritis model, C57BL/6J mice; experiment: Osteoarthritis model (ACL surgery), intra-articular injection; type: in vivo, mouse
Description: This example illustrates the testing of an MDM2 inhibitor in a mouse model for treatment of osteoarthritis. It can be adapted mutatis mutandis to test and develop Bcl inhibitors for use in clinical therapy.
The model was implemented as follows. C57BL/6J mice underwent surgery to cut the anterior cruciate ligament of one rear limb to induce osteoarthritis in the joint of that limb. During week 3 and week 4 post-surgery, the mice were treated with 5.8 μg of Nutlin-3A (n=7) per operated knee by intra-articular injection, q.o.d. for 2 weeks. At the end of 4 weeks post-surgery, joints of the mice were monitored for presence of senescent cells, assessed for function, monitored for markers of inflammation, and underwent histological assessment.
Two control groups of mice were included in the studies performed: one group comprising C57BL/6J or 3MR mice that had undergone a sham surgery (n=3) (i.e., surgical procedures followed except for cutting the ACL) and intra-articular injections of vehicle parallel to the GCV (ganciclovir) treated group; and one group comprising C57BL/6J or 3MR mice that had undergone an ACL surgery and received intra-articular injections of vehicle (n=5) parallel to the GCV-treated group. RNA from the operated joints of mice from the Nutlin-3A treated mice was analyzed for expression of SASP factors (mmp3, IL-6) and senescence markers (p16). qRT-PCR was performed to detect mRNA levels.
Function of the limbs was assessed 4 weeks post-surgery by a weight bearing test to determine which leg the mice favored. The mice were allowed to acclimate to the chamber on at least three occasions prior to taking measurements. Mice were maneuvered inside the chamber to stand with one hind paw on each scale. The weight that was placed on each hind limb was measured over a three second period. At least three separate measurements were made for each animal at each time point. The results were expressed as the percentage of the weight placed on the operated limb versus the contralateral unoperated limb.

[4] = system: atherosclerosis model, LDLR-/- mice; experiment: Atherosclerosis model, LDLR-/- mice fed a high fat diet, systemic administration; type: in vivo, mouse
Description: This example illustrates the testing of an MDM2 inhibitor in a mouse model for treatment of atherosclerosis. The test compounds are administered systemically rather than locally. The model is done in an LDLR−/− strain of mice, which are deficient in the receptor for low-density lipoprotein. The experiments described here can be adapted mutatis mutandis to test and develop other types of inhibitors for use in clinical therapy.
Two groups of LDLR−/− mice (10 weeks) are fed a high fat diet (HFD) (Harlan Teklad TD.88137) having 42% calories from fat, beginning at Week 0 and throughout the study. Two groups of LDLR−/− mice (10 weeks) are fed normal chow (−HFD). From weeks 0-2, one group of HFD mice and —HFD mice are treated with Nutlin-3A (25 mg/kg, intraperitoneally). One treatment cycle is 14 days treatment, 14 days off. Vehicle is administered to one group of HFD mice and one group of −HFD mice. At week 4 (timepoint 1), one group of mice are sacrificed and to assess presence of senescent cells in the plaques. For the some of the remaining mice, Nutlin-3A and vehicle administration is repeated from weeks 4-6. At week 8 (timepoint 2), the mice are sacrificed and to assess presence of senescent cells in the plaques. The remaining mice are treated with Nutlin-3A or vehicle from weeks 8-10. At week 12 (timepoint 3), the mice are sacrificed and to assess the level of plaque and the number of senescent cells in the plaques.
Plasma lipid levels were measured in LDLR−/− mice fed a HFD and treated with Nutlin-3A or vehicle at timepoint 1 as compared with mice fed a —HFD (n=3 per group). Plasma was collected mid-afternoon and analyzed for circulating lipids and lipoproteins.
At the end of timepoint 1, LDLR−/− mice fed a HFD and treated with Nutlin-3A or vehicle were sacrificed (n=3, all groups), and the aortic arches were dissected for RT-PCR analysis of SASP factors and senescent cell markers. Values were normalized to GAPDH and expressed as fold-change versus age-matched, vehicle-treated LDLR−/− mice on a normal diet.
At the end of timepoint 2, LDLR−/− mice fed a HFD and treated with Nutlin-3A or vehicle (n=3 for all groups) were sacrificed, and aortic arches were dissected for RT-PCR analysis of SASP factors and senescent cell markers. Values were normalized to GAPDH and expressed as fold-change versus age-matched, vehicle-treated LDLR−/− mice on a normal diet.
At the end of timepoint 3, LDLR−/− mice fed a HFD and treated with Nutlin-3A or vehicle (n=3 for all groups) were sacrificed, and aortas were dissected and stained with Sudan IV to detect the presence of lipid. Body composition of the mice was analyzed by MRI, and circulating blood cells were counted by Hemavet™.

SMILES: CN(C)CC[C@H](CSc1ccccc1)Nc1ccc(S(=O)(=O)NC(=O)c2ccc(N3CCN(Cc4ccccc4-c4ccc(Cl)cc4)CC3)cc2)cc1[N+](=O)[O-] [ABT-737]
- dose-limiting toxicity in human patients [1]: dose-limiting thrombocytopenia

SMILES: CC1(C)CCC(c2ccc(Cl)cc2)=C(CN2CCN(c3ccc(C(=O)NS(=O)(=O)c4ccc(N[C@H](CCN5CCOCC5)CSc5ccccc5)c(S(=O)(=O)C(F)(F)F)c4)cc3)CC2)C1 [ABT-263, Navitoclax]
- SpO2 levels [2]: statistically significant increases

SMILES: CC[C@H](C(=O)N1CCCC[C@H]1C(=O)O[C@H](CCc1ccc(OC)c(OC)c1)c1cccc(OCC(=O)NCC(CNC(=O)COc2cccc([C@@H](CCc3ccc(OC)c(OC)c3)OC(=O)[C@@H]3CCCCN3C(=O)[C@@H](CC)c3cc(OC)c(OC)c(OC)c3)c2)CN(C)C)c1)c1cc(OC)c(OC)c(OC)c1 [AP2018]
- SpO2 levels [2]: statistically significant increases

SMILES: COc1ccc(C2=N[C@@H](c3ccc(Cl)cc3)[C@@H](c3ccc(Cl)cc3)N2C(=O)N2CCNC(=O)C2)c(OC(C)C)c1 [Nutlin-3A]
- clearance of senescent cells from the joint ([3]; 5.8 μg per knee intra-articular): cleared senescent cells from the joint
- weight bearing: favoring of unoperated over operated hind limb ([3]; 4 weeks post-surgery): abrogated this effect
- histopathology: destruction of the proteoglycan layer ([3]; joint tissue after ACL surgery): completely abrogated this effect
- expression of p16, IL-6, and MMP13 in the tissue ([3]; operated joint, qRT-PCR, 4 weeks post-surgery, 5.8 μg per knee intra-articular q.o.d. 2 weeks): reduced the expression back to below the level of the controls; also recorded: ameliorated
- expression of SASP factors and senescent cell markers in aortic arch, timepoint 2 ([4]; HFD, multiple treatment cycles, 25 mg/kg i.p., RT-PCR): reduced expression of most markers
- expression of SASP factors and senescent cell markers in aortic arch, timepoint 1 ([4]; HFD, one treatment cycle, 25 mg/kg i.p., MMP3, MMP13, PAI1, p21, IGFBP2, IL-1A, IL-1B, RT-PCR): reduced expression of several SASP factors and senescent cell markers
- reduction of surface area covered by plaques in the descending aorta ([4]; HFD, timepoint 3 (week 12), Sudan IV staining): about 45%
- mass and body fat composition ([4]; mice fed the high fat diet, MRI, timepoint 3): decreased
- platelet and lymphocyte counts versus vehicle treated mice ([4]; timepoint 3, Hemavet): equivalent
- SpO2 levels [2]: statistically significant increases

SMILES: Nc1nc(O)c2ncn(COC(CO)CO)c2n1 [ganciclovir]
- SpO2 levels [2]: statistically significant increases
